Reference: paper PMC11249632, “Activation of the Calcium-Sensing Receptor by a Subfraction of Amino Acids Contained in Thyroid Drainage Fluid” (ACS Pharmacology & Translational Science, 2024)
Values belong to the compound of their own block, whether it stands above or below them.

Columns and labels:
[1] = target: T1, calcium-sensing receptor (Homo sapiens, UniProt P41180, R990G); assay: Fura-2 intracellular calcium mobilization, receptor-expressing vs nontransfected HEK293 cells; type: cell-based; design: gene CASR; recombinant human receptor stably expressed in HEK293 cells
T1 sequence (P41180 20-1078 R990G): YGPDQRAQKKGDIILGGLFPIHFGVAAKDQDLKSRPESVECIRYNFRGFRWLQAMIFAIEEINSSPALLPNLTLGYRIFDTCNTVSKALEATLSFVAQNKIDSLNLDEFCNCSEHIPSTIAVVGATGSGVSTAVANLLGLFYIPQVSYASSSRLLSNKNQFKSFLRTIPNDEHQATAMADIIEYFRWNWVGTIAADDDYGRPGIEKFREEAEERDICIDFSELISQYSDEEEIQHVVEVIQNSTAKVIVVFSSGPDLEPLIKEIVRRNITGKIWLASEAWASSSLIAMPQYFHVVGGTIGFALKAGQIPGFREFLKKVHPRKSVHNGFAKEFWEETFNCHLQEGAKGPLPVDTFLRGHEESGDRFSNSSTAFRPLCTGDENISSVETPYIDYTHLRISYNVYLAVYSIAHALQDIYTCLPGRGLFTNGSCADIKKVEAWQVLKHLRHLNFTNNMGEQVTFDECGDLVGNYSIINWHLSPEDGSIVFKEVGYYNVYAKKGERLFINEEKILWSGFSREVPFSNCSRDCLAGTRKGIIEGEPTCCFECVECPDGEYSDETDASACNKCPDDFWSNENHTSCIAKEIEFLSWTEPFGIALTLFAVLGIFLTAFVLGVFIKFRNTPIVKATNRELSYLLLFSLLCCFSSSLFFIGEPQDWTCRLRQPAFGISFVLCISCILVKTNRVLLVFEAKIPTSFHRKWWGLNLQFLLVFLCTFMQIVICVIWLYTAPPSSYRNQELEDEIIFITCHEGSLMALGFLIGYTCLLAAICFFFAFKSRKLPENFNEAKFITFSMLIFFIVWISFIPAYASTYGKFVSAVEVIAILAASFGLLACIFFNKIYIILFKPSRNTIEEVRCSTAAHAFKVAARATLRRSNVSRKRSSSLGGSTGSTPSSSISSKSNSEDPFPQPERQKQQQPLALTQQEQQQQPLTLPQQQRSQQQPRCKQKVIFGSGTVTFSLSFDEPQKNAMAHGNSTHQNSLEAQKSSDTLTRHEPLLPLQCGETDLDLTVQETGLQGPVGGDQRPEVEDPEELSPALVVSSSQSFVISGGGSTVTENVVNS

[2] = target: T1, calcium-sensing receptor; assay: Fura-2 intracellular calcium mobilization, receptor-expressing vs nontransfected HEK293 cells, blocked by NPS-2143; type: cell-based; design: gene CASR; recombinant human receptor stably expressed in HEK293 cells
[3] = target: T1, calcium-sensing receptor; assay: Fura-2 intracellular calcium mobilization in receptor-expressing HEK293 cells; inhibition of Ca2+-mediated activation at neutral pH (IC50 […] at pH ~[…]); type: cell-based; design: gene CASR; recombinant human receptor stably expressed in HEK293 cells
[4] = target: T1, calcium-sensing receptor; design: gene CASR

SMILES: N[C@@H](CC(=O)O)C(=O)O [L-aspartate]
- Fura-2 intracellular calcium mobilization, receptor-expressing vs nontransfected [1]: Concentration-dependent receptor activation by L-glutamate (A) and L-aspartate (B)

- Fura-2 intracellular calcium mobilization, receptor-expressing vs nontransfected [2]: ~ 5 mM
SMILES: N[C@@H](CCC(=O)O)C(=O)O [L-glutamate]

- IC50 [3]: ~500 nM
SMILES: CC(C)(Cc1ccc2ccccc2c1)NC[C@@H](O)COc1cccc(Cl)c1C#N [NPS-2143, 2-chloro-6-[(2R)-2-hydroxy-3-[(2-methyl-1-naphthalen-2-ylpropan-2-yl)amino]propoxy]benzonitrile]

SMILES: N[C@@H](CCC(=O)N[C@@H](CS)C(=O)NCC(=O)O)C(=O)O [glutathione]
- Fura-2 intracellular calcium mobilization in receptor-expressing HEK293 cells [4]: > 3 mM
